Measured values: publication PMC5057115, “Cathelicidins in the Tasmanian devil (Sarcophilus harrisii)” (Scientific Reports, 2016)
Where no end group is shown, it is not given here.

Columns and labels:
[1] = test system: E. coli ATCC 25922; test: microbe, parasite or virus in culture; type: cell-based, Escherichia coli; settings: ATCC 25922, 24 h
Protocol: (§1) Tissue expression of devil cathelicidin prepropeptides was determined by real-time PCR on a range of secretory, immune, reproductive, gastrointestinal and respiratory tissues, as well as BLAST searches of the milk transcriptome. Opportunistic tissue samples for real-time PCR were collected from Taronga Zoo (Sydney) from devils which were subject to euthanasia due to old age and advanced disease. The mature peptides of all six devil cathelicidins were synthesised by ChinaPeptides Co. Ltd. and their antimicrobial activity against bacterial and fungal pathogens determined by broth microdilution susceptibility assay according to clinical laboratory standards institute guidelines. Antimicrobial activity was expressed as minimum inhibitory concentration (MIC). Cytotoxicity was assessed in the human cell line A549 and haemolytic activity determined against human blood. Statistical significance of peptide effect on cell survival in comparison to the untreated control was calculated using a one sample t-test. Pouch microbiome analysis was performed on swabs from the pouch of lactating and non-lactating devils to detect changes in microbe populations. Pouch swab collection was carried out in accordance with the Save the Tasmanian Devil Program and was approved by the Animal Ethics Committee of the University of Sydney (permit number 681). […]
(§2) base (YNB) for fungi, from a concentration of 64μg/mL to 0.125μg/mL in a final volume of 100 μL .
(§3) Two antibiotics, ampicillin and tetracycline, were included as a positive control for bacteria, and the antifungal drug fluconazole for fungi. A well containing cells and media only was used as a “no drug” control to ensure that cultures grew normally. Bacteria were subcultured on Mueller Hinton agar (MHA) or Sheep blood agar (BA) for 24 hours at 35 °C for Staphylococcus spp., Pseudomonas spp., Enterococcus spp. and E.coli, with 5% CO2 for Streptococcus spp., K.pneumoniae, P.multocida, L.monocytogenes and N.asteroides. Similarly, fungi were subcultured on Sabouraud agar (SAB) at 35 °C for 24 hours prior to the test. Colonies were resuspended in saline and the OD530 measured with a McFarland reader. If necessary the suspension was diluted to 0.45-0.55 McFarland units with saline. […] Assays Antimicrobial activity was expressed as minimum inhibitory concentration (MIC), which was defined as the lowest concentration of cathelicidin preventing visible growth, relative to the negative control. […]
(§4) 570nm and 620nm using the Victor 3 multilabel plate reader (PerkinElmer). […] To x i city of cathelicidins was calculated according to Invitrogen recommendations and expressed as percentage cell survival compared to the untreated growth control. […]
(§5) Haemolytic activity was assessed using 10mL of human blood collected into potassium -ED T A vacutainers (BD). […]

[2] = test system: L. monocytogenes*; type: cell-based, Listeria monocytogenes; settings: broth microdilution (CLSI), 64 to 0.125 μg/mL, 24 h at 35 °C with 5% CO2; animal isolate
Protocol: as §1, with “populations.” for “populations. Pouch swab collection was carried out in accordance with the Save the Tasmanian Devil Program and was approved by the Animal Ethics Committee of the University of Sydney (permit number 681).”
(§6) Two antibiotics, ampicillin and tetracycline, were included as a positive control for bacteria, and the antifungal drug fluconazole for fungi. […] Colonies were resuspended in saline and the OD530 measured with a McFarland reader. […] Assays Antimicrobial activity was expressed as minimum inhibitory concentration (MIC), which was defined as the lowest concentration of cathelicidin preventing visible growth, relative to the negative control. […]
as §4, §5

[3] = test system: E. coli; type: cell-based, Escherichia coli; settings: broth microdilution (CLSI), 64 to 0.125 μg/mL, 24 h at 35 °C; human clinical isolate
Protocol: as §1, with “t-test.” for “t-test. Pouch microbiome analysis was performed on swabs from the pouch of lactating and non-lactating devils to detect changes in microbe populations. Pouch swab collection was carried out in accordance with the Save the Tasmanian Devil Program and was approved by the Animal Ethics Committee of the University of Sydney (permit number 681).”
as §6
(§7) DMEM and positive control of dimethylsulfoxide (DMSO) (1%) were also included. Following incubation for a further 24 hours, cell viability was determined using alamar blue (Invitrogen) which was added to each well. The plates were incubated for 24 hours, then the absorption measured at 570nm and 620nm using the Victor 3 multilabel plate reader (PerkinElmer). […] To x i city of cathelicidins was calculated according to Invitrogen recommendations and expressed as percentage cell survival compared to the untreated growth control. […]
(§8) Haemolytic activity was assessed using 10mL of human blood collected into potassium -ED T A […]

[4] = test system: S. aureus; type: cell-based, Staphylococcus aureus; settings: broth microdilution (CLSI), 64 to 0.125 μg/mL, 24 h at 35 °C; human clinical isolate
Protocol: as §1, §2
Two antibiotics, ampicillin and tetracycline, were included as a positive control for bacteria, and the antifungal drug fluconazole for fungi. A well containing cells and media only was used as a “no drug” control to ensure that cultures grew normally. […] Colonies were resuspended in saline and the OD530 measured with a McFarland reader. […] Assays Antimicrobial activity was expressed as minimum inhibitory concentration (MIC), which was defined as the lowest concentration of cathelicidin preventing visible growth, relative to the negative control. […]
as §7, §8

[5] = test system: C. krusei ATCC 6258; type: cell-based, Candida krusei; settings: broth microdilution (CLSI), YNB, 64 to 0.125 μg/mL, 48 hours at 35 °C; ATCC strain
Protocol: as §1, with “t-test.” for “t-test. Pouch microbiome analysis was performed on swabs from the pouch of lactating and non-lactating devils to detect changes in microbe populations. Pouch swab collection was carried out in accordance with the Save the Tasmanian Devil Program and was approved by the Animal Ethics Committee of the University of Sydney (permit number 681).”
as §6, §7, §8

[6] = test system: K. pneumoniae*; type: cell-based, Klebsiella pneumoniae; settings: broth microdilution (CLSI), 64 to 0.125 μg/mL, 24 h at 35 °C with 5% CO2; animal isolate
Protocol: as §1, with “t-test.” for “t-test. Pouch microbiome analysis was performed on swabs from the pouch of lactating and non-lactating devils to detect changes in microbe populations. Pouch swab collection was carried out in accordance with the Save the Tasmanian Devil Program and was approved by the Animal Ethics Committee of the University of Sydney (permit number 681).”
as §6, §7, §8

[7] = test system: E. faecalis ATCC 29212; test: microbe, parasite or virus in culture; type: cell-based, Enterococcus faecalis; settings: ATCC 29212, 24 h
Protocol: as §1, §2, §3, §4, §5

[8] = test system: C. neoformans; type: cell-based, Cryptococcus neoformans; settings: broth microdilution (CLSI), YNB, 64 to 0.125 μg/mL, 72 hours at 35 °C; human clinical isolate
Protocol: as §1, with “t-test.” for “t-test. Pouch microbiome analysis was performed on swabs from the pouch of lactating and non-lactating devils to detect changes in microbe populations. Pouch swab collection was carried out in accordance with the Save the Tasmanian Devil Program and was approved by the Animal Ethics Committee of the University of Sydney (permit number 681).”
as §6, §7, §8

[9] = test system: C. parapsilosis ATCC 22019; test: microbe, parasite or virus in culture; type: cell-based; settings: broth microdilution (CLSI), YNB, 64 to 0.125 μg/mL, 48 hours at 35 °C; ATCC strain
Protocol: as §1, §2
(§9) Two antibiotics, ampicillin and tetracycline, were included as a positive control for bacteria, and the antifungal drug fluconazole for fungi. A well containing cells and media only was used as a “no drug” control to ensure that cultures grew normally. Bacteria were subcultured on Mueller Hinton agar (MHA) or Sheep blood agar (BA) for 24 hours at 35 °C for Staphylococcus spp., Pseudomonas spp., Enterococcus spp. and E.coli, with 5% CO2 for Streptococcus spp., K.pneumoniae, P.multocida, L.monocytogenes and N.asteroides. Similarly, fungi were subcultured on Sabouraud agar (SAB) at 35 °C for 24 hours prior to the test. Colonies were resuspended in saline and the OD530 measured with a McFarland reader. If necessary the suspension was diluted to 0.45-0.55 McFarland units with saline. Following a 1:150 dilution for bacteria and twostep dilution for fungi (1:50, 1:20), 100 μL of microorganisms (1x106 – 5 x10^5 cells/mL) were pipetted into wells 2-12, the first well acting as a negative control. Colony counts were performed using a 1:1000 dilution for bacteria and 1:10 for fungi spread onto MHA/BA or SAB plates respectively. The 96 well microdilution and agar plates were incubated for 24 hours at 35 °C (Escherichia coli, Staphylococcus spp., Enterococcus spp. and Pseudomonas spp.), with 5% CO2 (Streptococcus spp. Pasteurella multocida, Klebsiella pneumoniae, Listeria monocytogenes a nd Nocardia asteroids) for bacteria, and 35 °C for 48 hours (Candida spp .) or 72 hours (Cryptococcus spp.) for fungi. Assays Antimicrobial activity was expressed as minimum inhibitory concentration (MIC), which was defined as the lowest concentration of cathelicidin preventing visible growth, relative to the negative control. […]
(§10) DMEM and positive control of dimethylsulfoxide (DMSO) (1%) were also included. […]
(§11) 570nm and 620nm using the Victor 3 multilabel plate reader (PerkinElmer). The assay was performed on two separate occasions. To x i city of cathelicidins was calculated according to Invitrogen recommendations and expressed as percentage cell survival compared to the untreated growth control. A significant difference between cathelicidin treated and control cell survival was tested using a o ne sample t-test (p<0.05).
(§12) Haemolytic activity was assessed using 10mL of human blood collected into potassium -ED T A vacutainers (BD). The blood was washed three times with 30mL of calcium and magnesium -free Dulbecco’s phosphate buffered saline (DPBS) and cells were collected by centrifugation at 2000 x g […]
(§13) for 10 minutes. […]

[10] = test system: S. pneumoniae ATCC 49619; test: microbe, parasite or virus in culture; type: cell-based; settings: ATCC 49619, 24 h
Protocol: as §1, §2, §9, §10, §11, §12, §13

[11] = test system: P. multocida*; type: cell-based, Pasteurella multocida; settings: broth microdilution (CLSI), 64 to 0.125 μg/mL, 24 h at 35 °C with 5% CO2; animal isolate
Protocol: as §1, with “t-test.” for “t-test. Pouch microbiome analysis was performed on swabs from the pouch of lactating and non-lactating devils to detect changes in microbe populations. Pouch swab collection was carried out in accordance with the Save the Tasmanian Devil Program and was approved by the Animal Ethics Committee of the University of Sydney (permit number 681).”
as §6, §7, §8

[12] = test system: S. aureus ATCC 29213; test: microbe, parasite or virus in culture; type: cell-based, Staphylococcus aureus; settings: ATCC 29213, 24 h
Protocol: as §1, §2, §3, §4, §5

| Sequence | MIC [1] [mg/L] | MIC [2] [mg/L] | MIC [3] [mg/L] | MIC [4] [mg/L] | MIC [5] [mg/L] | MIC [6] [mg/L] | MIC [7] [mg/L] | MIC [8] [mg/L] | MIC [9] [mg/L] | MIC [10] [mg/L] | MIC [11] [mg/L] | MIC [12] [mg/L] |
| --- | --- | --- | --- | --- | --- | --- | --- | --- | --- | --- | --- | --- |
| KRIGLIRLIGKILRGLRRLG [Saha-CATH5] | 32 | >64 | 32 | 64 | 64 | >64 | >64 | 32 | >64 | 64 | >64 | 64 |
| KRIRFFERIRDRLRDLGNRIKNRIRDFFS [Saha-CATH6] | >64 | >64 | >64 | >64 | 64 | >64 | >64 | 64 | >64 | 64 | >64 | >64 |
| KRMGIFHLFWAGLRKLGNLIKNKIQQGIENFLG [Saha-CATH3] | >64 | >64 | >64 | >64 | >64 | >64 | >64 | 16 | >64 | >64 | >64 | >64 |
